In patent EP4722358A1 (AJOU UNIVERSITY INDUSTRY-ACADEMIC COOPERATION FOUNDATION, priority 2023, dated 2024):

What was measured:
Test in all cases: Enzymatic reaction rate with glycerol (MBTH assay)
Type in all cases: biochemical
[1] = tested on: Klebsiella pneumoniae fused glycerol dehydratase fGDHt variant M158W(β); settings: substrate glycerol, MBTH assay 5 minutes, deoxygenated 35 mM phosphate buffer (pH 8.0), 2 µM coenzyme B12
Method: (§1) The activities of the wild-type and variant enzymes were measured at 25°C using 3-methyl-2-benzothiazolinone hydrazone (MBTH). To eliminate oxygen inactivation, the enzymes were incubated for 5 minutes in 35 mM phosphate buffer (pH 8.0) stirred with a negative pressure pump. The reaction was initiated by the addition of glycerol. The absorbance measured at 670 nm of the variant was compared with that of the wild-type fGDHt to determine the relative substrate activity (FIG. 10). The MBTH assay was performed as follows:
(§2) The reaction was then initiated by adding glycerol, the substrate to the assay mixture. The reaction was performed for 5 minutes and the reaction was terminated by adding 12 mg/mL MBTH and 0.1 M potassium citrate buffer (pH 3.6). Five minutes after the reaction was terminated, FeCl3 was added thereto and the reaction was performed for 15 minutes. The absorbance was measured at 670 nm.
(§3) Km and Kcat were calculated using the following Equation (Michaelis-Menten equation): v = (d[P])/(dt) = Vmax ([S])/(KM + [S]) = kcat [E]0 ([S])/(KM + [S]) [formula]
(§4) wherein Km is the Michaelis constant and Kcat is the enzyme turnover number.

[2] = tested on: Klebsiella pneumoniae fused glycerol dehydratase fGDHt variant L113W(β); settings: substrate glycerol, MBTH assay 5 minutes, deoxygenated 35 mM phosphate buffer (pH 8.0), 2 µM coenzyme B12
Method: as §1, §2, §3, §4

[3] = tested on: Klebsiella pneumoniae fused glycerol dehydratase fGDHt variant A177M/L113W(α/β); settings: substrate glycerol, MBTH assay 5 minutes, deoxygenated 35 mM phosphate buffer (pH 8.0), 2 µM coenzyme B12
Method: as §1, §2, §3, §4

[4] = tested on: Klebsiella pneumoniae fused glycerol dehydratase fGDHt variant A177M(α); settings: substrate glycerol, MBTH assay 5 minutes, deoxygenated 35 mM phosphate buffer (pH 8.0), 2 µM coenzyme B12
Method: as §1, §2, §3, §4

[5] = tested on: Klebsiella pneumoniae fused glycerol dehydratase fGDHt variant A177M/L113W/M158W(α/β/β); settings: substrate glycerol, MBTH assay 5 minutes, deoxygenated 35 mM phosphate buffer (pH 8.0), 2 µM coenzyme B12
Method: as §1, §2, §3, §4

[6] = tested on: Klebsiella pneumoniae glycerol dehydratase, fGDHt (alpha-beta fused subunit, stop codon TAA changed to glutamine CAA), SEQ ID NO: 4; settings: substrate glycerol, MBTH assay 5 minutes, deoxygenated 35 mM phosphate buffer (pH 8.0), 2 µM coenzyme B12
Method: as §1, §2, §3, §4

[7] = tested on: Klebsiella pneumoniae fused glycerol dehydratase fGDHt variant A177M/M158W(α/β); settings: substrate glycerol
Method: as §1, §2, §3, §4

[8] = tested on: Klebsiella pneumoniae fused glycerol dehydratase fGDHt variant L113F(β); settings: substrate glycerol
Method: as §1, §2, §3, §4

[9] = FGDHt(A177M/M158W(α/β)), MBTH assay 5 minutes, deoxygenated 35 mM phosphate buffer (pH 8.0), 2 µM coenzyme B12
[10] = fGDHt (L113F(β)), MBTH assay 5 minutes, deoxygenated 35 mM phosphate buffer (pH 8.0), 2 µM coenzyme B12

OCC(O)CO [glycerol]
Km [1]: 340 ± 50 µM | Kcat [2]: 31.82 ± 10.99 s⁻¹ | Km [2]: 520 ± 170 µM | Kcat [3]: 31.96 ± 9.42 s⁻¹ | Kcat [4]: 107.48 ± 14.91 s⁻¹ | Km [4]: 360 ± 70 µM | Kcat [5]: 28.93 ± 2.17 s⁻¹ | Km [5]: 140 ± 40 µM | Kcat [6]: 230.28 ± 10.63 s⁻¹ | Km [6]: 270 ± 30 µM | kcat/Km higher than those of fGDHt ([7]; A177M/M158W (α/β) compared with fGDHt): 8% | Kcat [7, 9]: 155.47 ± 13.23 s⁻¹ | Km [7, 9]: 150 ± 40 µM | kcat/Km higher than those of fGDHt ([8]; L113F (β) compared with fGDHt): 6% | Kcat [8, 10]: 208.62 ± 21.8 s⁻¹ | Km [8, 10]: 240 ± 60 µM
